Source: US8802164B2 (Oryza Oil & Fat Chemical Co., Ltd., priority 2003, dated 2014)
Converted amounts (≈) assume the structure as drawn.

How the values were obtained:
[1] = tested on: mouse adipose cell line (3T30L1); test: Effect on fat accumulation and differentiation of 3T3-L1 adipocytes; format: cell-based; conditions: 3T3-L1 after differentiation induction, 6 days with sample; FIG. 6
Method: The test method is herein described. Cultivate the 3T30L1 adipose cell (5×10^4 cells/mL) in DMEM medium (high glucose) including fetal calf serum (10 wt %) for two days. Then, replace the medium with a different type of medium containing insulin ([…]), dexamethasone (0.25 μM) and isobutyl methyl xanthin (0.5 mM) for the differentiation induction. Two days later, replace the medium again with the different medium containing the samples and insulin (1 μg/mL), and cultivate them for six days replacing the medium every other day. After completing the cultivation, analyze the glycerol 3-phosphate dehydrogenase (GPDH) activity which is to be an indicator of the concentration of triglyceride in the cell and adipocyte differentiation.

[2] = Diet effect on weight gain and body fat accumulation, mice fed sample-mixed food for 13 days; format: in vivo; conditions: mice ddY, sample mixed in food; for effect on accumulation of epididymal fat and perinephric fat weight: 13 days, FIG. 2; for effect on the weight gain: free feeding 13 days, extract 0.5/1.0 wt %, caffeine 0.05/0.1 wt %, chlorogenic acid 0.15/0.3 wt %, FIG. 1
Method: The weight of each mouse was measured every other day during the feeding period, and the weight of the epididymal fat of each mouse on the last day of the feeding period. There was little difference in intake of the food among the control group (for only normal food given) and individual sample administration groups.

pancreatic lipase = molecular target: T1, pancreatic lipase (Sus scrofa, UniProt P00591); test: Pancreatic lipase inhibitory activity (in vitro); format: biochemical; conditions: swine pancreatic lipase 105.8 units/mL; FIG. 5
T1 construct: purchased SIGMA ADLRICH JAPAN K.K
T1 sequence (P00591 1-450): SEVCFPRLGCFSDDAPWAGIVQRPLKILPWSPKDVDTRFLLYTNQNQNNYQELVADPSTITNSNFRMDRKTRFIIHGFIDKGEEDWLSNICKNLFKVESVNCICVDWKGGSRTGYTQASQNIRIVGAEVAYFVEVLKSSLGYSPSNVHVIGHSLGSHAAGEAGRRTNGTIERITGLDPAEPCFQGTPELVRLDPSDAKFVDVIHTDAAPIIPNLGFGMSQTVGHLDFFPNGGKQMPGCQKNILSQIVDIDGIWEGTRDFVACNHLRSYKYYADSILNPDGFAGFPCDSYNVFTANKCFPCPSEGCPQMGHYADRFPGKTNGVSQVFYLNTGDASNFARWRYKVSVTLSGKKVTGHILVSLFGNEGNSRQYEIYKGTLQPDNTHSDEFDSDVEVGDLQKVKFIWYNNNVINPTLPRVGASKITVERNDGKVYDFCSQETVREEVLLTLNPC
Method: The lipase inhibitory activity was analyzed by using a pancreatic lipase (product of […] JAPAN K.K, final concentration 105.8 units/mL) derived from the swine and a lipase kit-s (Dainippon Pharmaceutical Co., Ltd.).

[3] = Suppressive effect on fatty liver (hepatic triglyceride and total cholesterol); format: in vivo; conditions: mice, oral once a day for two weeks; FIG. 7
Text: The test method is herein described. Keep the mice (ddY, male, 5-week-old) in the laboratory for one week. Then, divide them into four groups and orally administer the samples suspended in the gum […] %) once a day for two weeks. On the final day of the test, remove the livers from the non-food-derived mice, and measure the amount of liver triglyceride and total cholesterol contained therein by using the test kit of Wako Pure Chemical Industries Ltd. of Japan.

α-glucosidase = test: α-Glucosidase inhibitory activity; format: biochemical, rat; conditions: for IC50: rat small intestine acetone powder enzyme, 4-methylumbelliferyl-α-D-glucopyranoside 0.05 mM, 37° C., 30 minutes; for inhibitory activity of α-glucosidase (in words): rat small intestine enzyme, Chart 2
Method: The test method is herein described. First of all, mix the acetone powder of the rat small intestine with the pH7.0. 0.1M phosphate buffer solution (product of […] JAPAN K.K), which is approx. 10 times as much as the volume of the acetone powder, and obtain the enzyme liquid from the centrifuged supernatant. Use the 0.2 mM 4-methyl umbel […]-gluco-pyranoside ([…] JAPAN K.K) as a substrate. After dissolving each sample in the DMSO, prepare the two-fold dilution series with the 4% DMSO containing phosphate buffer solution. The diluted solution (50 μL/well) and buffered substrate (25 μL/well) are mixed in a microplate, and after preheating it at 37° C. for 10 minutes, add the enzyme liquid (25 μL/well) to induce the reaction at 37° C. for 30 minutes (final concentration of enzyme: 1 mg protein mL, final concentration of substrate: 0.05 mM). Then, add the 0.2M Na2CO3 (100 μL/well) to stop the reaction. Measure the fluorescence intensity (excitation wavelength: 366 nm, determined wavelength: […]) using a microplate reader.

[4] = Hypotriglyceridemic action in blood of food-deprived mice; format: in vivo; conditions: 24-hour food-deprived mice, single oral dose, blood every hour; FIG. 9
Method: Then the effects on the blood triglyceride level are observed. The test method is herein described. First of all, take a blood sample from the veins of the 24-hour food-deprived mice (ddy. Male, 6-week-old). Half an hour later, orally apply each sample (10 mL./kg) suspended with the gum […] of 5 w/v % to the mice. Then, take a blood sample from the mice every one hour, and measure the blood triglyceride levels. Under the same condition, measure the blood triglyceride levels of the mice as a control, in which only gum […] orally administered.

epididymal fat = test: Lipolysis effect, glycerol release of epididymal fat (in vitro); format: cell-based, rats; conditions: rat epididymal fat, 37° C., three hours; extract at 1000 μg/mL; FIG. 8
Method: The test method is herein described. Remove the epididymal fat from male Wister rats, and incubate the fat in each sample solved in Medium 199 (medium culture) at a temperature of 37° C. for three hours. After completing the incubation, remove the fat and measure the amount of glycerol in the medium by using F-kit glycerol (product of Nippon Roche).

[5] = Four-day weight gain test with existing dietetic materials (Chart 1); format: in vivo; conditions: mice, sample mixed in food
Method: Salacia extract can be obtained by extracting the salacia root with solvent. Evening primrose extract can also be obtained by extracting the evening primrose with solvent. As a test method, as shown in Chart 1, a four-day experiment was conducted with the mice (ddY, male, 5-week-old) to freely eat the food (CE-2, CLEA Japan, Inc.) mixed with the sample as indicated in Chart 1. The weight of each mouse was measured on the first day and on the final day of the experimental period.

SMILES	effect on the GPDH activity [1]	effect on the fat accumulation (triglyceride accumulation) [1]	effect on accumulation of epididymal fat and perinephric fat weight [2]	effect on the weight gain [2]	pancreatic lipase inhibitory activity (pancreatic lipase)	effect on liver triglyceride [3]	liver total cholesterol value [3]	IC50 (α-glucosidase) [µg/mL]	inhibitory activity of α-glucosidase (in words) (α-glucosidase)	lowering effect on the blood-triglyceride [4]	lipolysis effect (glycerol release) (epididymal fat)	Weight (g) 4th day ([5]; 4th day, average ± standard error, n = 5) [g]	Difference in the weight compared to the control ([5]; four days) [g]	Weight increase ([5]; four days) [g]
Cn1c(=O)c2c(ncn2C)n(C)c1=O [Caffeine, caffeine]	mild inhibitory effect on the GPDH activity	mild inhibitory effect on the fat accumulation	slightly indicates a suppressive effect on the accumulation of the fat	do not have a sufficient suppressive effect on the weight gain	indicate a pancreatic lipase inhibitory activity	strong effect	almost the same as the value of the control group	>1000	does not indicate the inhibitory activity	strong lowering effect on the blood-triglyceride	–	–	–	–
O=C(/C=C/c1ccc(O)c(O)c1)O[C@@H]1C[C@](O)(C(=O)O)C[C@@H](O)[C@H]1O [Chlorogenic acid, chlorogenic acid]	mild inhibitory effect on the GPDH activity	mild inhibitory effect on the fat accumulation	slightly indicates a suppressive effect on the accumulation of the fat	do not have a sufficient suppressive effect on the weight gain	indicate a pancreatic lipase inhibitory activity	strong effect	almost the same as the value of the control group	–	strong inhibitory activity of α-glucosidase	lowering effect on the blood-triglyceride identical to the effect of synephrine	mild lipolysis effect	–	–	–
O=C(O)/C=C/c1ccc(O)c(O)c1 [Coffeic acid]	–	–	–	–	–	–	–	100 (≈ 0.555 mM)	strong inhibitory activity of α-glucosidase	–	–	–	–	–
O=C(O)[C@]1(O)C[C@@H](O)[C@@H](O)[C@H](O)C1 [Quinic acid, quinic acid]	–	–	–	–	–	–	–	>1000	does not indicate the inhibitory activity	–	–	–	–	–
c1cc2c(cc1[C@H]1OC[C@H]3[C@@H]1CO[C@@H]3c1ccc3c(c1)OCO3)OCO2 [Sesamine, sesamine]	–	–	–	–	–	–	–	–	–	–	–	30.91 ± 1.79	-0.83	3.55
